Measured values taken from US11814391B2, “Macrocyclic compounds for the treatment of medical disorders” (Achillion Pharmaceuticals, Inc., priority 2018, dated 2023).

These compounds were tested against Human Factor D (Homo sapiens (Human), UniProt P00746) (assay: Human Factor D assay). Details: Human Factor D 80 nM, substrate Z-L-Lys-SBzl, A405; read-out: IC50 (Stars).
Format: biochemical
Description: The assay of Example 3 was used to determine the IC50's of the compounds. Other standard factor D inhibition assays are also available.
Human Factor D (purified from human serum, Complement Technology, Inc.) at 80 nM final concentration is incubated with test compound at various concentrations for 5 min at room temperature in 50 mM Tris, 1M NaCl, pH 7.5. A synthetic substrate Z-L-Lys-SBzI and DTNB (Ellman's reagent) are added to final concentrations of 100 μM each. Absorbance at 405 nm (A405) is recorded at 30 second intervals for 30 min using a microplate spectrophotometer. IC50 values are calculated by nonlinear regression of complement Factor D reaction rates as a function of test compound concentration.

Sequence of Human Factor D (P00746 26-253): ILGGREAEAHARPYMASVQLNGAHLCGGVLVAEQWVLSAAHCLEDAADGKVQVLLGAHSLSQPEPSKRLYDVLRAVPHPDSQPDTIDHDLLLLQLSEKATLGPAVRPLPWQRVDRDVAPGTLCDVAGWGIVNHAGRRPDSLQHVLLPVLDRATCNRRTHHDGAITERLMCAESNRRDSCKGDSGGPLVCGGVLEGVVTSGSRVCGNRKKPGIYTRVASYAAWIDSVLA

Compound	IC50 [µM]
CC(=O)c1nn2c3c(cc(-c4cnc(C)nc4)cc13)CCCCCCC(=O)NC[C@@]13C[C@@H](C(=O)Nc4nc(OC(F)(F)F)ccc4C)N(C(=O)C2)[C@@H]1C3 [Compound 1, (4^1R,4^3S,4^5R)-1^3-acetyl-N-(3-methyl-6-(trifluoromethoxy)pyridin-2-yl)-1^5-(2-methylpyrimidin-5-yl)-3,7-dioxo-1^1H-4^2,6-diaza-1(1,7)-indazola-4(2,5)-bicyclo[3.1.0]hexanacyclotridecaphane-4^3-carboxamide]	< 1
CC(=O)c1nn2c3c(cc(-c4cnc(C)nc4)cc13)CCCCCCC(=O)NC[C@@]13C[C@@H](C(=O)Nc4nc(Br)ccc4CN4CC(F)C4)N(C(=O)C2)[C@@H]1C3 [Compound 2, (4^1R,4^3S,4^5R)-1^3-acetyl-N-(6-bromo-3-((3-fluoroazetidin-1-yl)methyl)pyridin-2-yl)-1^5-(2-methylpyrimidin-5-yl)-3,7-dioxo-1^1H-4^2,6-diaza-1(1,7)-indazola-4(2,5)-bicyclo[3.1.0]hexanacyclotridecaphane-4^3-carboxamide]	< 1
CC(=O)c1nn2c3c(cc(N4CCCC4)cc13)CCCCCCC(=O)NC[C@@]13C[C@@H](C(=O)Nc4nc(C(F)(F)F)ccc4C)N(C(=O)C2)[C@@H]1C3 [Compound 3, (4^1R,4^3S,4^5R)-1^3-acetyl-N-(3-methyl-6-(trifluoromethyl)pyridin-2-yl)-3,7-dioxo-1^5-(pyrrolidin-l-yl)-1^1H-4^2,6-diaza-1(1,7)-indazola-4(2,5)-bicyclo[3.1.0]hexanacyclotridecaphane-4^3-carboxamide]	< 1
CC(=O)c1nn2c3c(cc(C4CC4)cc13)CCCCCCC(=O)NC[C@@]13C[C@@H](C(=O)Nc4nc(C(F)(F)F)ccc4C)N(C(=O)C2)[C@@H]1C3 [Compound 4, (4^1R,4^3S,4^5R)-1^3-acetyl-1^5-cyclopropyl-N-(3-methyl-6-(trifluoromethyl)pyridin-2-yl)-3,7-dioxo-1^1H-4^2,6-diaza-1(1,7)-indazola-4(2,5)-bicyclo[3.1.0]hexanacyclotridecaphane-4^3-carboxamide]	< 1
CC(=O)c1nn2c3c(cc(-c4nnc(C)o4)cc13)CCCCCCC(=O)NC[C@@]13C[C@@H](C(=O)Nc4nc(C(F)(F)F)ccc4C)N(C(=O)C2)[C@@H]1C3 [Compound 5, (4^1R,4^3S,4^5R)-1^3-acetyl-1^5-(5-methyl-1,3,4-oxadiazol-2-yl)-N-(3-methyl-6-(trifluoromethyl)pyridin-2-yl)-3,7-dioxo-1^1H-4^2,6-diaza-1(1,7)-indazola-4(2,5)-bicyclo[3.1.0]hexanacyclotridecaphane-4^3-carboxamide]	< 1
COc1cc2c3c(c1)c(C(C)=O)nn3CC(=O)N1[C@H](C(=O)Nc3nc(C(F)(F)F)ccc3C)C[C@@]3(CNC(=O)CCCCCC2)C[C@@H]13 [Compound 6, (4^1R,4^3S,4^5R)-1^3-acetyl-1^5-methoxy-N-(3-methyl-6-(trifluoromethyl)pyridin-2-yl)-3,7-dioxo-1^1H-4^2,6-diaza-1(1,7)-indazola-4(2,5)-bicyclo[3.1.0]hexanacyclotridecaphane-4^3-carboxamide]	< 1
CC(=O)c1nn2c3c(cc(Oc4ncc(C)cn4)cc13)CCCCCC(=O)NC[C@@]13C[C@@H](C(=O)Nc4nc(C(F)(F)F)ccc4C)N(C(=O)C2)[C@@H]1C3 [Compound 7, (4^1R,4^3S,4^5R)-1^3-acetyl-N-(3-methyl-6-(trifluoromethyl)pyridin-2-yl)-1^5-((5-methylpyrimidin-2-yl)oxy)-3,7-dioxo-1^1H-4^2,6-diaza-1(1,7)-indazola-4(2,5)-bicyclo[3.1.0]hexanacyclododecaphane-4^3-carboxamide]	< 1
CC(=O)c1nn2c3c(cc(-c4cnc(C)nc4)cc13)CCCCC[C@@H](C)C(=O)NC[C@@]13C[C@@H](C(=O)Nc4nc(C(F)(F)F)ccc4C)N(C(=O)C2)[C@@H]1C3 [Compound 8, (4^1R,4^3S,4^5R,8R)-1^3-acetyl-8-methyl-N-(3-methyl-6-(trifluoromethyl)pyridin-2-yl)-1^5-(2-methylpyrimidin-5-yl)-3,7-dioxo-1^1H-4^2,6-diaza-1(1,7)-indazola-4(2,5)-bicyclo[3.1.0]hexanacyclotridecaphane-4^3-carboxamide]	< 1
CC(=O)c1nn2c3c(cc(-c4cnc(C)nc4)cc13)CCCCC[C@@H](C)C(=O)NC[C@@]13C[C@@H](C(=O)Nc4cc(F)cc(Br)n4)N(C(=O)C2)[C@@H]1C3 [Compound 9, (4^1R,4^3S,4^5R,8R)-1^3-acetyl-N-(6-bromo-4-fluoropyridin-2-yl)-8-methyl-1^5-(2-methylpyrimidin-5-yl)-3,7-dioxo-1^1H-4^2,6-diaza-1(1,7)-indazola-4(2,5)-bicyclo[3.1.0]hexanacyclotridecaphane-4^3-carboxamide]	< 1
CC(=O)c1nn2c3c(cc(-c4cnc(C)nc4)cc13)CCCCCC(C)(C)C(=O)NC[C@@]13C[C@@H](C(=O)Nc4nc(C(F)(F)F)ccc4C)N(C(=O)C2)[C@@H]1C3 [Compound 10, (4^1R,4^3S,4^5R)-1^3-acetyl-8,8-dimethyl-N-(3-methyl-6-(trifluoromethyl)pyridin-2-yl)-1^5-(2-methylpyrimidin-5-yl)-3,7-dioxo-1^1H-4^2,6-diaza-1(1,7)-indazola-4(2,5)-bicyclo[3.1.0]hexanacyclotridecaphane-4^3-carboxamide]	< 1
CC(=O)c1nn2c3c(cc(-c4cnc(C)nc4)cc13)CCCCCCC(=O)NC[C@@]13C[C@@H](C(=O)Nc4nc(C5CC5)ccc4C)N(C(=O)C2)[C@@H]1C3 [Compound 11, (4^1R,4^3S,45^R)-1^3-acetyl-N-(6-cyclopropyl-3-methylpyridin-2-yl)-15-(2-methylpyrimidin-5-yl)-3,7-dioxo-1^1H-4^2,6-diaza-1(1,7)-indazola-4(2,5)-bicyclo[3.1.0]hexanacyclotridecaphane-4^3-carboxamide]	< 1
CC(=O)c1nn(CC(=O)N(C)[C@H]2CCCCCCCCCc3ccc(Br)nc3NC2=O)c2ccc(-c3cnc(C)nc3)cc12 [Compound 12, (S)-2-(3-acetyl-5-(2-methylpyrimidin-5-yl)-1H-indazol-1-yl)-N-(2-bromo-15-oxo-5,6,7,8,9,10,11,12,13,14, 15,16-dodecahydropyrido[2,3-b][1]azacyclotetradecin-14-yl)-N-methylacetamide]	1 to 10
CC(=O)c1nn2c3c(cc(-c4cnc(C)nc4)cc13)C/C=C/CCCC(=O)N(C)C[C@@]13C[C@@H](C(=O)Nc4cc(F)cc(Br)n4)N(C(=O)C2)[C@@H]1C3 [Compound 13, (4^1R,4^3S,4^5R,E)-1^3-acetyl-N-(6-bromo-4-fluoropyridin-2-yl)-6-methyl-1^5-(2-methylpyrimidin-5-yl)-3,7-dioxo-1^1H-4^2,6-diaza-1(1,7)-indazola-4(2,5)-bicyclo[3.1.0]hexanacyclotridecaphan-11-ene-4^3-carboxamide]	< 1
CC(=O)c1nn2c3c(cc(-c4cnc(C)nc4)cc13)CCCCCCC(=O)N(C)C[C@@]13C[C@@H](C(=O)Nc4cc(F)cc(Br)n4)N(C(=O)C2)[C@@H]1C3 [Compound 14, (4^1R,4^3S,4^5R)-1^3-acetyl-N-(6-bromo-4-fluoropyridin-2-yl)-6-methyl-1^5-(2-methylpyrimidin-5-yl)-3,7-dioxo-1^1H-4^2,6-diaza-1(1,7)-indazola-4(2,5)-bicyclo[3.1.0]hexanacyclotridecaphane-4^3-carboxamide]	< 1
CC(=O)c1nn2c3c(cc(N)cc13)CCCCCCC(=O)NC[C@@]13C[C@@H](C(=O)Nc4nc(C(F)(F)F)ccc4C)N(C(=O)C2)[C@@H]1C3 [Compound 15, (4^1R,4^3S,4^5R)-1^3-acetyl-1^5-amino-N-(3-methyl-6-(trifluoromethyl)pyridin-2-yl)-3,7-dioxo-1^1H-4^2,6-diaza-1(1,7)-indazola-4(2,5)-bicyclo[3.1.0]hexanacyclotridecaphane-4^3-carboxamide]	< 1
CC(=O)c1nn2c3c(cc(-c4cnc(C)nc4)cc13)CCCCC[C@@H](C)C(=O)NC[C@@]13C[C@@H](C(=O)Nc4ccc(F)c(Br)n4)N(C(=O)C2)[C@@H]1C3 [Compound 16, (4^1R,4^3S,4^5R,8R)-1^3-acetyl-N-(6-bromo-5-fluoropyridin-2-yl)-8-methyl-1^5-(2-methylpyrimidin-5-yl)-3,7-dioxo-1^1H-4^2,6-diaza-1(1,7)-indazola-4(2,5)-bicyclo[3.1.0]hexanacyclotridecaphane-4^3-carboxamide]	< 1
CC(=O)c1nn2c3c(cc(OCC(C)C)cc13)CCCCCCC(=O)NC[C@@]13C[C@@H](C(=O)Nc4nc(C(F)(F)F)ccc4C)N(C(=O)C2)[C@@H]1C3 [Compound 17, (4^1R,4^3S,4^5R)-1^3-acetyl-1^5-isobutoxy-N-(3-methyl-6-(trifluoromethyl)pyridin-2-yl)-3,7-dioxo-1^1H-4^2,6-diaza-1(1,7)-indazola-4(2,5)-bicyclo[3.1.0]hexanacyclotridecaphane-4^3-carboxamide]	< 1
CC(=O)c1nn2c3c(cc(C)cc13)CCCCCCC(=O)NC[C@@]13C[C@@H](C(=O)Nc4nc(C(F)(F)F)ccc4C)N(C(=O)C2)[C@@H]1C3 [Compound 18, (4^1R,4^3S,4^5R)-1^3-acetyl-1^5-methyl-N-(3-methyl-6-(trifluoromethyl)pyridin-2-yl)-3,7-dioxo-1^1H-4^2,6-diaza-1(1,7)-indazola-4(2,5)-bicyclo[3.1.0]hexanacyclotridecaphane-4^3-carboxamide]	< 1
CC(=O)c1nn2c3c(cc(OC(C)C)cc13)CCCCCCC(=O)NC[C@@]13C[C@@H](C(=O)Nc4nc(C(F)(F)F)ccc4C)N(C(=O)C2)[C@@H]1C3 [Compound 19, (4^1R,4^3S,4^5R)-1^3-acetyl-1^5-isopropoxy-N-(3-methyl-6-(trifluoromethyl)pyridin-2-yl)-3,7-dioxo-1^1H-4^2,6-diaza-1(1,7)-indazola-4(2,5)-bicyclo[3.1.0]hexanacyclotridecaphane-4^3-carboxamide]	< 1
